Reference: patent US11767341B2, “Lincosamide antibiotics and uses thereof” (President and Fellows of Harvard College, priority 2017, dated 2023)
≈ marks a conversion by molar mass, not a printed value. Where two headings read alike, the source gives them in different places.

Key:
Assay in all cases: MIC determination
Assay type in all cases: cell-based
[1] = tested on: S. aureus UNT-146, MP-620, TP 506 (ermA); settings: Staphylococcus aureus
[2] = tested on: S. pneumoniae MMX 3031 cMefA; settings: Streptococcus pneumoniae, MMX3031CMEFA
[3] = tested on: E. faecalis MMX 847 Macrolide-Resistant; settings: Enterococcus faecalis
C. difficile BAA 1805 = settings: Clostridioides difficile, BAA1805; C. difficile BAA 1805; read-out: MIC
[4] = tested on: S. pyogenes UNT-014, MP-625 MacRes; settings: Streptococcus pyogenes; S. pyogenes UNT-014, MP-625 MacRes; read-out: MIC
[5] = tested on: S. aureus BAA-1556 (USA 300); settings: Staphylococcus aureus
[6] = tested on: S. aureus UNT-120, MP-619, NRS22 (USA 600, GISA); settings: Staphylococcus aureus
[7] = tested on: E. coli MMX TolC parent strain; settings: Escherichia coli
[8] = tested on: S. pneumoniae MMX 3028 cErmB; settings: Streptococcus pneumoniae, MMX3028CERMB; S. pneumoniae MMX 3028 cErmB; read-out: MIC
B. fragilis ATCC 25285 = settings: Bacteroides fragilis, ATCC25285; B. fragilis ATCC 25285; read-out: MIC
E. coli GUEST131 (NDM-1) = settings: Escherichia coli
P. aeruginosa ATCC 27853 = settings: Pseudomonas aeruginosa, ATCC27853
S. aureus MMX 3035 cErmA = settings: Staphylococcus aureus, MMX3035CERMA
[9] = tested on: S. aureus Micromyx USA 300; settings: Staphylococcus aureus, USA300; S. aureus Micromyx USA 300; read-out: MIC
S. aureus BAA 977 iErmA = settings: Staphylococcus aureus, BAA977
H. influenzae ATCC 49247 = settings: Haemophilus influenzae, ATCC49247; H. influenzae ATCC 49247; read-out: MIC
[10] = tested on: P. aeruginosa MMX 3476 Δmex; settings: Pseudomonas aeruginosa
E. faecalis ATCC 29212 = settings: Enterococcus faecalis
E. coli MMX 0121 ΔTolC = settings: Escherichia coli
S. pyogenes ATCC 19615 = settings: Streptococcus pyogenes, ATCC19615; S. pyogenes ATCC 19615; read-out: MIC
[11] = tested on: S. pneumoniae TP 1579 (ermB + tet(M, O)); settings: Streptococcus pneumoniae
[12] = tested on: S. pneumoniae TP 1537 (ermB + mefA); settings: Streptococcus pneumoniae
S. pneumoniae ATCC 49619 = settings: Streptococcus pneumoniae, ATCC49619; S. pneumoniae ATCC 49619; read-out: MIC
K. pneumoniae UNT TEM-10 = settings: Klebsiella pneumoniae, UNTTEM10
K. pneumoniae ATCC 10031 = settings: Klebsiella pneumoniae, ATCC10031; K. pneumoniae ATCC 10031; read-out: MIC
[13] = tested on: K. pneumoniae IHMA 658692; KPC-2; settings: Klebsiella pneumoniae
[14] = tested on: S. pyogenes MMX 946 Macrolide-Resistant; settings: Streptococcus pyogenes
[15] = tested on: P. aeruginosa MMX Mex parent strain; settings: Pseudomonas aeruginosa
[16] = tested on: S. pneumoniae UNT-039, MP-627, TP1517 (mefA); settings: Streptococcus pneumoniae
[17] = tested on: S. pneumoniae UNT-038, MP-626, TP 160 (mefA); settings: Streptococcus pneumoniae
S. aureus ATCC 29213 = settings: Staphylococcus aureus, ATCC29213, S. aureus ATCC 29213; read-out: MIC
E. coli ATCC 25922 = settings: Escherichia coli
[18] = tested on: S. aureus UNT96, NRS710, MP-618 (USA 100, Erythro >8); settings: Staphylococcus aureus
E. faecalis UNT-047 VRE = settings: Enterococcus faecalis
[19] = tested on: S. aureus MP-549 msr(a) USA 300; settings: Staphylococcus aureus, USA300, S. aureus MP-549 msr(a) USA 300
[20] = S. aureus UNT-146, MP-620, TP 506 (ermA), read-out: MIC
[21] = S. aureus BAA-1556 (USA 300), read-out: MIC
[22] = S. aureus UNT-120, MP-619, NRS22 (USA 600, GISA), read-out: MIC
[23] = P. aeruginosa ATCC 27853, read-out: MIC
[24] = S. pneumoniae TP 1537 (ermB + mefA), read-out: MIC
[25] = K. pneumoniae IHMA 658692, KPC-2, read-out: MIC
[26] = ATCC25922, E. coli ATCC 25922, read-out: MIC
[27] = S. aureus UNT96, NRS710, MP-618 (USA 100, Erythro >8), read-out: MIC
[28] = E. faecalis UNT-047 VRE, read-out: MIC

CSC1O[C@H]([C@H](NC(=O)[C@H]2NC[C@@H]3CC(F)(F)CCO[C@H]32)[C@H](C)Cl)C(O)[C@@H](O)[C@H]1O (some centres unmarked) [FSA-24036]
MIC [1, 20]: > 32 µg/mL
MIC [2]: ≤ 0.06 µg/mL
MIC ([3]; E. faecalis MMX 847 Macrolide-Resistant (MacRes), read-out: MIC): > 64 µg/mL
MIC (C. difficile BAA 1805): 2 µg/mL (≈ 4.21 µM)
MIC [4]: ≤ 0.0313 µg/mL
MIC [5, 21]: > 32 µg/mL
MIC [6, 22]: > 32 µg/mL
MIC ([7]; E. coli MMX TolC parent strain, read-out: MIC): > 64 µg/mL
MIC [8]: 64 µg/mL (≈ 135 µM)
MIC (B. fragilis ATCC 25285): 4 µg/mL (≈ 8.42 µM)
MIC (E. coli GUEST131 (NDM-1)): > 32 µg/mL
MIC (P. aeruginosa ATCC 27853; [23]): > 64 µg/mL
MIC (S. aureus MMX 3035 cErmA; S. aureus MMX 3035 cErmA, read-out: MIC): > 64 µg/mL
MIC [9]: 0.12 µg/mL (≈ 0.253 µM)
MIC (S. aureus BAA 977 iErmA): 0.5 µg/mL (≈ 1.05 µM)
MIC (H. influenzae ATCC 49247): 4 µg/mL (≈ 8.42 µM)
MIC [10]: 32 µg/mL (≈ 67.4 µM)
MIC (E. faecalis ATCC 29212; ATCC29212, read-out: MIC): 4 µg/mL (≈ 8.42 µM)
MIC (E. coli MMX 0121 ΔTolC): 8 µg/mL (≈ 16.8 µM)
MIC (S. pyogenes ATCC 19615): ≤ 0.0313 µg/mL
MIC [11]: ≤ 0.0313 µg/mL
MIC [12, 24]: > 32 µg/mL
MIC (S. pneumoniae ATCC 49619): ≤ 0.06 µg/mL
MIC (K. pneumoniae UNT TEM-10; K. pneumoniae UNT TEM-10, read-out: MIC): > 32 µg/mL
MIC (K. pneumoniae ATCC 10031): 16 µg/mL (≈ 33.7 µM)
MIC [13, 25]: > 32 µg/mL
MIC ([14]; S. pyogenes MMX 946 Macrolide-Resistant (MacRes), read-out: MIC): 4 µg/mL (≈ 8.42 µM)
MIC ([15]; P. aeruginosa MMX Mex parent strain, read-out: MIC): > 64 µg/mL
MIC [16]: ≤ 0.0313 µg/mL
MIC [17]: ≤ 0.0313 µg/mL
MIC (S. aureus ATCC 29213): 0.25 µg/mL (≈ 0.526 µM)
MIC (E. coli ATCC 25922; [26]): > 64 µg/mL
MIC [18, 27]: > 32 µg/mL
MIC (E. faecalis UNT-047 VRE; [28]): > 32 µg/mL

CSC1O[C@H]([C@H](NC(=O)[C@H]2NC[C@@H]3CC=CCO[C@H]32)[C@H](C)Cl)C(O)[C@@H](O)[C@H]1O (some centres unmarked) [FSA-24035]
MIC [1]: > 32 µg/mL
MIC [2]: ≤ 0.06 µg/mL
MIC [3]: > 64 µg/mL
MIC (C. difficile BAA 1805): 2 µg/mL (≈ 4.58 µM)
MIC [4]: ≤ 0.0313 µg/mL
MIC [5]: > 32 µg/mL
MIC [6]: > 32 µg/mL
MIC [19]: 0.5 µg/mL (≈ 1.14 µM)
MIC [7]: > 64 µg/mL
MIC [8]: 64 µg/mL (≈ 146 µM)
MIC (B. fragilis ATCC 25285): 8 µg/mL (≈ 18.3 µM)
MIC (E. coli GUEST131 (NDM-1)): > 32 µg/mL
MIC (P. aeruginosa ATCC 27853): > 64 µg/mL
MIC (S. aureus MMX 3035 cErmA): > 64 µg/mL
MIC [9]: 0.12 µg/mL (≈ 0.275 µM)
MIC (S. aureus BAA 977 iErmA): 0.25 µg/mL (≈ 0.572 µM)
MIC (H. influenzae ATCC 49247): 1 µg/mL (≈ 2.29 µM)
MIC [10]: 16 µg/mL (≈ 36.6 µM)
MIC (E. faecalis ATCC 29212; ATCC29212): 16 µg/mL (≈ 36.6 µM)
MIC (E. coli MMX 0121 ΔTolC): 4 µg/mL (≈ 9.15 µM)
MIC (S. pyogenes ATCC 19615): ≤ 0.0313 µg/mL
MIC [11]: ≤ 0.0313 µg/mL
MIC [12]: 32 µg/mL (≈ 73.2 µM)
MIC (S. pneumoniae ATCC 49619): ≤ 0.06 µg/mL
MIC (K. pneumoniae UNT TEM-10): 32 µg/mL (≈ 73.2 µM)
MIC (K. pneumoniae ATCC 10031): 64 µg/mL (≈ 146 µM)
MIC [13]: 32 µg/mL (≈ 73.2 µM)
MIC [14]: 16 µg/mL (≈ 36.6 µM)
MIC [15]: > 64 µg/mL
MIC [16]: ≤ 0.0313 µg/mL
MIC [17]: ≤ 0.0313 µg/mL
MIC (S. aureus ATCC 29213): 0.12 µg/mL (≈ 0.275 µM)
MIC (E. coli ATCC 25922; ATCC25922): > 64 µg/mL
MIC [18]: > 32 µg/mL
MIC (E. faecalis UNT-047 VRE; VRE): > 32 µg/mL

CSC1O[C@H]([C@H](NC(=O)[C@H]2NC[C@@H]3CCCCO[C@H]32)[C@H](C)Cl)C(O)[C@@H](O)[C@H]1O (some centres unmarked) [FSA-22091]
MIC [1, 20]: > 32 µg/mL
MIC [4]: < 0.0313 µg/mL
MIC [5, 21]: > 32 µg/mL
MIC [6, 22]: > 32 µg/mL
MIC (E. coli GUEST131 (NDM-1)): > 32 µg/mL
MIC (P. aeruginosa ATCC 27853; [23]): > 32 µg/mL
MIC (H. influenzae ATCC 49247): 8 µg/mL (≈ 18.2 µM)
MIC (E. faecalis ATCC 29212; ATCC29212, read-out: MIC): > 32 µg/mL
MIC (S. pyogenes ATCC 19615): < 0.0313 µg/mL
MIC [11]: < 0.0313 µg/mL
MIC [12, 24]: 32 µg/mL
MIC (S. pneumoniae ATCC 49619): < 0.0313 µg/mL
MIC (K. pneumoniae ATCC 10031): 8 µg/mL (≈ 18.2 µM)
MIC [13, 25]: > 32 µg/mL
MIC [16]: < 0.0313 µg/mL
MIC [17]: < 0.0313 µg/mL
MIC (S. aureus ATCC 29213): 0.125 µg/mL (≈ 0.285 µM)
MIC (E. coli ATCC 25922; [26]): 32 µg/mL (≈ 72.9 µM)
MIC [18, 27]: > 32 µg/mL
MIC (E. faecalis UNT-047 VRE; [28]): > 32 µg/mL
